Results taken from US11274097B2, “2-(het)aryl-substituted condensed bicyclic heterocycle derivatives as pest control agents” (BAYER CROPSCIENCE AKTIENGESELLSCHAFT, priority 2014, dated 2022).

What was measured:
Myzus persicae [1] = assay: Myzus persicae translaminar test (MYZUPE t); assay type: in vivo; conditions: 14 dat
Experimental: Myzus persicae—Translaminar Test (MYZUPE t)
(§1) Solvent: 7 parts by weight of dimethylformamide
(§2) Emulsifier: alkylaryl poly glycol ether
(§3) To produce an appropriate active ingredient formulation, 1 part by weight of active ingredient is dissolved using the stated parts by weight of solvent and made up with water containing an emulsifier concentration of 1000 ppm until the desired concentration is attained. To produce further test concentrations, the preparation is diluted with emulsifier-containing water. In the event that addition of ammonium salts or/and penetrants (rapeseed oil methyl ester) is required, these are each pipetted in a concentration of 1000 ppm after the finished formulation solution has been diluted.
One-leaved bell pepper plants (Capsicum annuum) heavily infested by the green peach aphid (Myzus persicae) are treated by spraying the top side of the leaf with the active ingredient formulation in the desired concentration.
(§4) After the desired time, the kill in % is determined. 100% means that all the aphids have been killed and 0% means that none of the aphids have been killed.

Myzus persicae [2] = assay: Myzus persicae spray test (MYZUPE), Chinese cabbage leaf discs; assay type: in vivo; conditions: application rate 500 g/ha, after 6 days
Outline: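 Leaf discs of Chinese cabbage carrying all aphid stages sprayed with compound formulated in acetone/DMF and diluted in water with 1000 ppm alkylaryl polyglycol ether emulsifier. Mortality scored after 6 days as % efficacy (100% = all aphids killed, 0% = none).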

[3] = log P by HPLC on a reversed-phase column (C 18), EEC Directive 79/831 Annex V.A8; assay type: physicochemical; conditions: 55° C.
Outline: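 Reversed-phase C18 HPLC at 55 °C, 10→95% acetonitrile linear gradient. log P (HCOOH) run at pH 2.7 with 0.1% formic acid; log P (neutral) at pH 7.8 with 0.001 M ammonium hydrogencarbonate. Calibrated by retention-time interpolation between unbranched C3–C16 alkan-2-ones of known log P.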

Nephotettix cincticeps = Nephotettix cincticeps test (NEPHCI); assay type: in vivo; conditions: 0.16 ppm
Experimental: Nephotettix cincticeps Test (NEPHCI)
as §1
(§5) Emulsifier: alkylaryl polyglycol ether
as §3
Rice plants (Oryza sativa, var. Balilla) are treated by spraying with the active ingredient formulation in the desired concentration and then populated with larvae of the green rice leafhopper (Nephotettix cincticeps).
After the desired time, the kill in % is determined. 100% means that all leafhoppers have been killed; 0% means that none of the leafhoppers have been killed.

Aphis gossypii [4] = assay: Aphis gossypii translaminar test (APHIGO t); assay type: in vivo; conditions: 2.4 g/ha, 7 dat
Experimental: Aphis gossypii—Translaminar Test (APHIGO t)
as §1, §5, §3
One-leaved cotton plants (Gossypium hirsutum) heavily infested by the cotton aphid (Aphis gossypii) are treated by spraying the top side of the leaf with the active ingredient formulation in the desired concentration.
as §4

Ctenocephalides felis [5] = assay: Ctenocephalides felis in vitro contact test; assay type: in vivo; conditions: application rate 5 μg/cm^2; adult cat fleas; after 48 h
Experimental: Ctenocephalides felis—In Vitro Contact Test
For the coating of the test tubes, 9 mg of active ingredient are first dissolved in 1 ml of acetone p.a. and then diluted to the desired concentration with acetone p.a. 250 μl of the solution are distributed homogeneously on the inner walls and base of a 25 ml test tube by turning and rocking on an orbital shaker (rocking rotation at 30 rpm for 2 h). With 900 ppm active ingredient solution and internal surface 44.7 cm^2, given homogeneous distribution, an area-based dose of 5 μg/cm^2 is achieved.
After the solvent has evaporated off, the tubes are populated with 5-10 adult cat fleas (Ctenocephalides felis), sealed with a perforated plastic lid and incubated in a horizontal position at room temperature and ambient humidity. After 48 h, efficacy is determined. To this end, the test tubes are stood upright and the fleas are knocked to the base of the tube. Fleas which remain motionless at the base or move in an uncoordinated manner are considered to be dead or moribund.
100% efficacy means that all the fleas were dead or moribund. 0% efficacy means that no fleas were harmed.

Myzus persicae [6] = assay: Myzus persicae contact test (MYZUPE c); assay type: in vivo; conditions: 2.4 g/ha, 14 dat
Experimental: Myzus persicae—Contact Test (MYZUPE c)
as §1, §2, §3
One-leaved bell pepper plants (Capsicum annuum) heavily infested by the green peach aphid (Myzus persicae) are treated by spraying the underside of the leaf with the active ingredient formulation in the desired concentration.
as §4

Aphis gossypii [7] = assay: Aphis gossypii contact test (APHIGO c); assay type: in vivo; conditions: 2.4 g/ha, 7 dat
Experimental: Aphis gossypii—Contact Test (APHIGO c)
as §1, §5, §3
One-leaved cotton plants (Gossypium hirsutum) heavily infested by the cotton aphid (Aphis gossypii) are treated by spraying the underside of the leaf with the active ingredient formulation in the desired concentration.
as §4

Nilaparvata lugens = Nilaparvata lugens test (NILALU); assay type: in vivo; conditions: 4 ppm
Experimental: Nilaparvata lugens Test (NILALU)
as §1, §5, §3
Rice plants (Oryza sativa, var. Balilla) are treated by spraying with the active ingredient formulation in the desired concentration and then populated with L3 larvae of the brown planthopper (Nilaparvata lugens).
After the desired time, the feeding damage in % is determined. 100% means that no feeding damage is found; 0% means that the feeding damage to the treated plant corresponds to that of the untreated control.

Ctenocephalides felis [8] = assay: Ctenocephalides felis oral test (CTECFE); assay type: in vivo; conditions: application rate 100 ppm; in citrated cattle blood; after 2 days
Experimental: Ctenocephalides felis-Oral Test ([…]) Solvent: dimethyl sulphoxide For the purpose of producing an appropriate active ingredient formulation, 10 mg of active ingredient are mixed with 0.5 ml of dimethyl sulphoxide. Dilution with citrated cattle blood gives the desired concentration. About 20 unfed adult cat fleas (Ctenocephalides felis) are placed into a chamber which is closed at the top and bottom with gauze. A metal cylinder whose bottom end is closed with parafilm is placed onto the chamber. The cylinder contains the blood/active ingredient preparation, which can be imbibed by the fleas through the parafilm membrane. After 2 days, the kill in % is determined. 100% means that all of the fleas have been killed; 0% means that none of the fleas have been killed.

CCS(=O)(=O)c1cc(C(F)(F)F)cnc1-c1nc2cc(C(F)(F)F)ncc2n1C [Example I-21]
% efficacy (Myzus persicae [1]; 2.4 g/ha): 90%
% efficacy (Myzus persicae [1]; 12 g/ha): 98%
efficacy (Myzus persicae [2]): 90%
LOGP_HCOOH ([3]; acidic range, pH 2.7, 0.1% aqueous formic acid/acetonitrile): 2.98
LOGP_NEUTRAL ([3]; neutral range, pH 7.8, 0.001 molar aqueous ammonium hydrogencarbonate/acetonitrile): 2.93
% efficacy (Nephotettix cincticeps; 14 dat): 90%
% efficacy (Nephotettix cincticeps; 21 dat): 95%
% efficacy (Nephotettix cincticeps; 34 dat): 100%
% efficacy (Aphis gossypii [4]): 65%
efficacy (Ctenocephalides felis [5]): 100%
% efficacy (Myzus persicae [6]): 85%
% efficacy (Aphis gossypii [7]): 98%
% efficacy (Nilaparvata lugens; 21 dat): 90%
% efficacy (Nilaparvata lugens; 28 dat): 100%
efficacy (kill) (Ctenocephalides felis [8]): 90%
